This is an account of results in patent US11056705B2, “Organic anolyte materials for flow batteries” (THE REGENTS OF THE UNIVERSITY OF MICHIGAN, priority 2015, dated 2021).

Data set [1] is described as follows: Cyclic voltammetry (CV) of anolyte candidates in a three-electrode cell. Format: physicochemical. The settings on record: for baseline (initial) current at starting potential of +1 V: MeCN/LiBF4, 0.01 M, 100 mV/s; for current ratio i9a(−)/iLi-9a: 0.1 M LiBF4 in MeCN.
The nature of data set [2]: Solubility in MeCN by UV-vis spectroscopy under inert atmosphere.
Method: (§1) The solubilities of 10a, 10a^(•), and Na-10a^(−) were determined by UV-vis spectroscopy in MeCN under an inert atmosphere.
(§2) A saturated solution of 10a^(•) was prepared and analyzed at 322 nm by UV-vis spectroscopy.
Data set [3] in a line: Stability of solutions in MeCN monitored by 1H NMR or UV-vis spectroscopy. The class given is physicochemical. How it is done:
The stabilities of 10a, 10a^(•) and Na-10a^(−) were monitored as solutions in MeCN by ^1H NMR spectroscopy or UV-vis spectroscopy. Separate solutions of 10a, 10a^(•) and Na-10a^(−) in MeCN were prepared at 480 mM, 540 mM and 39 mM concentrations, respectively. The parent compound 10a was monitored by ^1H NMR spectroscopy against an internal standard of 1,3,5-trimethoxybenzene. […] Solutions of the reduced species 10a^(•) and Na-10a^(−) were stored at room temperature under nitrogen, and the concentrations of the solutions were measured periodically over 36 h or 48 h by UV-vis spectroscopy (FIG. 13).

Another data set can be described thus: physchem. The settings on record: organic solvent or mixture, thermodynamic from solid.
Data set [4] is described as follows: Simulation of CVs fit to experimental data: Li+ association/dissociation with charged anolyte. Format: physicochemical. The procedure: To obtain values for the rates for association as well as the equilibrium constant for formation of Li-9a, the redox system proposed in Scheme 9 was computationally modeled. Diffusion constants for the anolyte were calculated to be on the order of 2×10^−9 m^2/s by analysis of changes in the potential at the first reductive couple with variable scan rates. This value was applied for all species in the simulation based on their similar molecular weights. A resistance of 400 ohms and no capacitance was simulated for all couples. With these parameters, the simulations were fit to experimental data acquired at variable scan rates (FIG. 9) in order to estimate the rate constants for association and dissociation of Li^+. The experimentally measured CVs features were accurately reproduced when the rate constant for Li^+ coordination was 10 M^−1s^−1 and the rate constant for dissociation was 0.5 s^−1. These rate constants indicate that the equilibrium constant for binding of Li^+ to 9a^(−) is on the order of 20 M^−1.
This system was further investigated at higher concentrations of Li^+. CVs were acquired at concentrations of LiBF4 ranging from 57 mM to 260 mM with a constant 0.1 M concentration of 9a (FIG. 9b; solid lines). As expected, higher concentrations of LiBF4 led to greater currents from the oxidation of Li-9a. The calculated rate constants (ki=10 M^−1s^−1, k^−1=0.5 s^−1) were employed to model the effects of LiBF4 concentration on the current peak-heights. The results are illustrated in FIG. 9b (dashed lines) and are in full agreement with the experimentally measured CVs.

Where [5] appears, read: MeCN/LiBF4, cathodic sweep starting at +1 V.
[6] abbreviates: simulation fit to experimental CVs at variable scan rates, MeCN/LiBF4.

Structures are written as SMILES. Values joined by “and” are separate entries in the source; they are usually repeats but may differ in a detail not shown here. Identical values can stand only once.

Method for physchem: as §1, §2

As to `CC([O-])=C1C=CN(C)C=C1.[Na+]` [Na-10a^(−)], the “baseline (initial) current at starting potential of +1 V” value in data set [1] was 40-50 μA and 45 μA. Also, in data set [2], the “solubility (saturation concentration)” value was 62 ± 7 mM. Besides, the “concentration of solution on storage” value in data set [3] (MeCN, room temperature under nitrogen, UV-vis over 36 h or 48 h, 540 mM (10a•), 39 mM (Na-10a−)) is “did not change”.

One may read the solubility as the dissolved amount per volume that the medium holds. In the case of `CC(=O)c1cc[n+](C)cc1` [Compound 10a], the solubility in “physchem” was 1600 ± 100 mM. In data set [1] (MeCN/LiBF4), the “difference of first reduction potential, 9a versus 10a” value was found to be 0.1 V; the “peak height ratios of two reductive couples” value was “close to 1”; the “second reduction more positive than that of 9a” value stood at 0.4 V. Further, the “baseline (initial) current at starting potential of +1 V” value in data set [1] is given as “no analogous current is observed”. In data set [3] (480 mM in MeCN, 1H NMR vs internal standard, four days, in the presence of air and moisture), the decomposition in solution result is given as “No measurable decomposition”.

Regarding `COC(=O)c1cc[n+](C)cc1.F[B-](F)(F)F` [Compound 9a], the “current ratio i9a(−)/iLi-9a” value in data set [1] (50 mV/s) is 32. Besides, the “current ratio i9a(−)/iLi-9a” value in data set [1] (200 mV/s) was 11. Also, the “current ratio i9a(−)/iLi-9a” value in data set [1] (500 mV/s) was determined as 6. The “potential at which charged anolyte is oxidized (discharged)” value in data set [1] (MeCN, 0.1 M LiBF4) was −1.7 V. Also, the “current at +0.4 V (lithium adduct formation)” value in data set [1] (MeCN, 0.1 M LiBF4, 200 mV/s) is listed as “almost no current was detected”. Besides, in data set [1] (setting [5]), the “first single-electron reduction (step i)” value is −1.1 V and the “second single-electron reduction (step ii)” value is −1.9 V. The diffusion constant in data set [4] (from changes in potential at the first reductive couple with variable scan rates) is recorded as ~2×10^−9 m^2/s. The “equilibrium constant for binding of Li^+” value in data set [4] (from the fitted rate constants) is approximately 20 M⁻¹. In data set [4] (setting [6]), the “rate constant for Li^+ coordination” value was 10 M⁻¹ s⁻¹ and the “rate constant for dissociation” value is 0.5 s⁻¹.
